Values quoted from earlier work as cited in patent publication US20110245279A1, “PREDICTIVE MARKER FOR EGFR INHIBITOR TREATMENT” (priority 2007, published 2011).
Read-outs that look alike come from different tables or passages of the source.

Experiments:
NSCLC [1] = system: NSCLC
[2] = patients with cancer receiving the 150 mg/day dose
NSCLC [3] = details: single agent; NSCLC patients for whom standard therapy for advanced disease has failed
[4] = randomized phase III trial, second line therapy of NSCLC

In the case of `CC(=O)O[C@@]12CO[C@@H]1C[C@H](O)[C@@]1(C)C(=O)[C@H](O)C3=C(C)[C@@H](OC(=O)[C@H](O)[C@@H](NC(=O)OC(C)(C)C)c4ccccc4)C[C@@](O)([C@@H](OC(=O)c4ccccc4)[C@H]21)C3(C)C` [docetaxel], the survival (NSCLC [1]; second line vs best supportive care, after cisplatin-based first-line regimens had failed) is listed as “improved survival”.
For `Nc1nc2[nH]cc(CCc3ccc(C(=O)N[C@@H](CCC(=O)O)C(=O)O)cc3)c2c(=O)[nH]1` [pemetrexed], the “efficacy compared with docetaxel” value (NSCLC [1]; [4]) is listed as “clinically equivalent efficacy” and the “side effects compared with docetaxel” value (NSCLC [1]; [4]) is listed as “significantly fewer side effects”.
In the case of `CCOC(=O)c1ccc(C#Cc2ccc3c(c2)C(C)(C)CCS3)nc1` [tazarotene], the “expression of RARRES1 gene” value (RARRES1 gene) is given as “up regulated”.
In the case of `C#Cc1cccc(Nc2ncnc3cc(OCCOC)c(OCCOC)cc23)c1` [Tarceva, erlotinib], the “drug levels in plasma” value [2] is given as > 500 ng/mL and the survival (NSCLC [3]) is given as “significantly prolongs and improves the survival”.
